Laboratory results published in patent US20150141381A1, “TETRACYCLINE COMPOUNDS HAVING TARGET THERAPEUTIC ACTIVITIES” (Paratek Pharmaceuticals, Inc., priority 2001, published 2015).
Read-outs that look alike come from different tables or passages of the source.

Columns and labels:
S. aureus RN450 = test: In Vitro Anti-Bacterial Activity Assay (MIC), gram positive; type: cell-based; settings: Staphylococcus aureus, RN450, 18 h, read-out: Antibiotic Activity Gram +
E. coli mL308 225 = test: In Vitro Anti-Bacterial Activity Assay (MIC), gram negative; type: cell-based; settings: Escherichia coli, ML308225, 18 h, read-out: Antibiotic Activity Gram −

Row | SMILES | MIC (S. aureus RN450; MIC class, Table 3) [µg/mL] | MIC (E. coli mL308 225; MIC class, Table 3) [µg/mL] | MIC (S. aureus RN450) [µg/mL] | MIC (E. coli mL308 225) [µg/mL]
1 | CN(C)c1cc(CNC(=O)Nc2ccc(OC(F)(F)F)cc2)c(O)c2c1C[C@H]1C[C@H]3[C@H](N(C)C)C(O)=C(C(N)=O)C(=O)[C@@]3(O)C(O)=C1C2=O [FO] | < 4 | > 4 | – | –
2 | CCCCOCCCNCc1ccc(OC)c(-c2ccc(O)c3c2C[C@H]2C[C@H]4[C@H](N(C)C)C(O)=C(C(N)=O)C(=O)[C@@]4(O)C(O)=C2C3=O)c1 [FR] | < 4 | < 4 | – | –
3 | CN(C)[C@@H]1C(O)=C(C(N)=O)C(=O)[C@@]2(O)C(O)=C3C(=O)c4c(O)c(C(C)(C)C)cc(C(N)C(=O)O)c4C[C@H]3C[C@@H]12 (stereo partly drawn) [FS] | > 4 | > 4 | – | –
4 | CC(C)COC(=O)NCc1ccc(O)c2c1C[C@H]1C[C@H]3[C@H](N(C)C)C(O)=C(C(N)=O)C(=O)[C@@]3(O)C(O)=C1C2=O [FT] | < 4 | > 4 | – | –
5 | CN(C)[C@@H]1C(O)=C(C(N)=O)C(=O)[C@@]2(O)C(O)=C3C(=O)c4c(O)ccc(CNC(=O)OCC(C)(C)C)c4C[C@H]3C[C@@H]12 [FU] | < 4 | > 4 | – | –
6 | CN(C)[C@@H]1C(O)=C(C(N)=O)C(=O)[C@@]2(O)C(O)=C3C(=O)c4c(O)c(I)cc(CN)c4C[C@H]3C[C@@H]12 [FV] | > 4 | > 4 | – | –
7 | CCOC(=O)C(NCc1ccc(OC)c(-c2ccc(O)c3c2C[C@H]2C[C@H]4[C@H](N(C)C)C(O)=C(C(N)=O)C(=O)[C@@]4(O)C(O)=C2C3=O)c1)C(C)C (stereo partly drawn) [FX] | < 4 | > 4 | – | –
8 | COC(=O)C(CC(C)C)NCc1ccc(OC)c(-c2ccc(O)c3c2C[C@H]2C[C@H]4[C@H](N(C)C)C(O)=C(C(N)=O)C(=O)[C@@]4(O)C(O)=C2C3=O)c1 (stereo partly drawn) [FY] | < 4 | > 4 | – | –
9 | CCOC(=O)C(Cc1ccccc1)NCc1ccc(OC)c(-c2ccc(O)c3c2C[C@H]2C[C@H]4[C@H](N(C)C)C(O)=C(C(N)=O)C(=O)[C@@]4(O)C(O)=C2C3=O)c1 (stereo partly drawn) [FZ] | < 4 | > 4 | – | –
10 | COc1ccc(CNCCN(C)C)cc1-c1ccc(O)c2c1C[C@H]1C[C@H]3[C@H](N(C)C)C(O)=C(C(N)=O)C(=O)[C@@]3(O)C(O)=C1C2=O [GA] | < 4 | > 4 | – | –
11 | CC(C)NCc1ccc(-c2ccc(O)c3c2C[C@H]2C[C@H]4[C@H](N(C)C)C(O)=C(C(N)=O)C(=O)[C@@]4(O)C(O)=C2C3=O)c2ccccc12 [GB] | < 4 | < 4 | – | –
12 | COc1ccc(OC(=O)Nc2ccc(-c3ccc(O)c4c3C[C@H]3C[C@H]5[C@@H](N(C)C)C(O)=C(C(N)=O)C(=O)[C@@]5(O)C(O)=C3C4=O)cc2)cc1 [GC] | – | – | > 4 | > 4
13 | CN(C)CC#Cc1cc(C(C)(C)C)c(O)c2c1C[C@H]1C[C@H]3[C@H](N(C)C)C(O)=C(C(N)=O)C(=O)[C@@]3(O)C(O)=C1C2=O [GD] | < 4 | > 4 | – | –
14 | COc1cc(-c2ccc(O)c3c2C[C@H]2C[C@H]4[C@H](N(C)C)C(O)=C(C(N)=O)C(=O)[C@@]4(O)C(O)=C2C3=O)cc(OC)c1OC [GE] | < 4 | > 4 | – | –
15 | COc1ncc(-c2ccc(O)c3c2C[C@H]2C[C@H]4[C@H](N(C)C)C(O)=C(C(N)=O)C(=O)[C@@]4(O)C(O)=C2C3=O)c(OC)n1 [GF] | < 4 | < 4 | – | –
16 | CN(C)C1C(O)=C(C(N)=O)C(=O)[C@@]2(O)C(O)=C3C(=O)c4c(O)ccc(-c5ccc(CN6CCCC6)c6ccccc56)c4C[C@H]3C[C@@H]12 (stereo partly drawn) [GH] | < 4 | < 4 | – | –
17 | CCOc1ccc(-c2ccc(O)c3c2C[C@H]2C[C@H]4[C@H](N(C)C)C(O)=C(C(N)=O)C(=O)[C@@]4(O)C(O)=C2C3=O)cc1CN [GJ] | < 4 | < 4 | – | –
18 | CCOC(=O)CNCc1ccc(-c2ccc(O)c3c2C[C@H]2C[C@H]4[C@@H](N(C)C)C(O)=C(C(N)=O)C(=O)[C@@]4(O)C(O)=C2C3=O)cc1 [GK] | < 4 | > 4 | – | –
19 | CC(C)NCc1ccc(-c2ccc(O)c3c2C[C@H]2C[C@H]4C(N(C)C)C(O)=C(C(N)=O)C(=O)[C@@]4(O)C(O)=C2C3=O)cc1 (stereo partly drawn) [GL] | < 4 | < 4 | – | –
20 | CN(C)c1cc(NC(=N)NCc2ccccc2)c(O)c2c1C[C@H]1C[C@H]3C(N(C)C)C(O)=C(C(N)=O)C(=O)[C@@]3(O)C(O)=C1C2=O (stereo partly drawn) [GM] | > 4 | > 4 | – | –
21 | COc1ccc(C=O)cc1-c1ccc(O)c2c1C[C@H]1C[C@H]3[C@@H](N(C)C)C(O)=C(C(N)=O)C(=O)[C@@]3(O)C(O)=C1C2=O [GO] | < 4 | > 4 | – | –
22 | CN1CCCC1=Nc1ccc(-c2ccc(O)c3c2C[C@H]2C[C@H]4[C@@H](N(C)C)C(O)=C(C(N)=O)C(=O)[C@@]4(O)C(O)=C2C3=O)cc1 [GP] | < 4 | > 4 | – | –
23 | CN(C)[C@H]1C(O)=C(C(N)=O)C(=O)[C@@]2(O)C(O)=C3C(=O)c4c(O)ccc(-c5ccc(NC(=O)C6CC6)cc5)c4C[C@H]3C[C@@H]12 [GQ] | < 4 | > 4 | – | –

Row | SMILES | MIC (S. aureus RN450; MIC class, Table 3) [µg/mL] | MIC (E. coli mL308 225; MIC class, Table 3) [µg/mL] | MIC (S. aureus RN450) [µg/mL] | MIC (E. coli mL308 225) [µg/mL]
24 | CCOC(=O)CNC(=O)c1cccc(-c2ccc(O)c3c2C[C@H]2C[C@H]4[C@H](N(C)C)C(O)=C(C(N)=O)C(=O)[C@@]4(O)C(O)=C2C3=O)c1 [GS] | < 4 | > 4 | – | –
25 | CN(C)[C@H]1C(O)=C(C(N)=O)C(=O)[C@@]2(O)C(O)=C3C(=O)c4c(O)ccc(-c5ccc(NC(=O)C(C)(C)C)cc5)c4C[C@H]3C[C@@H]12 [GT] | < 4 | > 4 | – | –
26 | CN(C)[C@H]1C(O)=C(C(N)=O)C(=O)[C@@]2(O)C(O)=C3C(=O)c4c(O)ccc(-c5ccc(/N=C\NC(C)(C)C)cc5)c4C[C@H]3C[C@@H]12 [GU] | < 4 | < 4 | – | –
27 | CN(C)C1C(O)=C(C(N)=O)C(=O)[C@@]2(O)C(O)=C3C(=O)c4c(O)ccc(-c5ccc(NC(=O)Nc6ccc(OC(F)(F)F)cc6)cc5)c4C[C@H]3C[C@@H]12 (stereo partly drawn) [GV] | > 4 | > 4 | – | –
28 | COc1ccc(CNCc2ccc(-c3ccc(O)c4c3C[C@H]3C[C@H]5[C@H](N(C)C)C(O)=C(C(N)=O)C(=O)[C@@]5(O)C(O)=C3C4=O)cc2)cc1 [GX] | < 4 | < 4 | – | –
29 | CN(C)[C@@H]1C(O)=C(C(N)=O)C(=O)[C@@]2(O)C(O)=C3C(=O)c4c(O)ccc(-c5ccc(CN6CCCC6)o5)c4C[C@H]3C[C@@H]12 [GY] | < 4 | < 4 | – | –
30 | COc1ccc(CN2CCCC2)cc1-c1ccc2c(c1O)C(=O)C1=C(O)[C@]3(O)C(=O)C(C(N)=O)=C(O)[C@@H](N(C)C)[C@@H]3[C@@H](O)[C@@H]1[C@H]2C [HC] | > 4 | > 4 | – | –
31 | COC(=O)c1cc(N)cc(-c2ccc(O)c3c2C[C@H]2C[C@H]4[C@H](N(C)C)C(O)=C(C(N)=O)C(=O)[C@@]4(O)C(O)=C2C3=O)c1 [HE] | < 4 | > 4 | – | –
32 | C[C@H]1c2c(-c3ccc4c(c3)OCO4)cc(-c3cccc4c3OCO4)c(O)c2C(=O)C2=C(O)[C@]3(O)C(=O)C(C(N)=O)=C(O)[C@@H](N(C)C)[C@@H]3[C@@H](O)[C@@H]21 [HF] | < 4 | > 4 | – | –
33 | COCCOC(=O)Nc1ccc(-c2ccc(O)c3c2C[C@H]2C[C@H]4[C@H](N(C)C)C(O)=C(C(N)=O)C(=O)[C@@]4(O)C(O)=C2C3=O)cc1 [HH] | < 4 | > 4 | – | –
34 | COc1ccc(-c2ccc(O)c3c2C[C@H]2C[C@H]4[C@H](N(C)C)C(O)=C(C(N)=O)C(=O)[C@@]4(O)C(O)=C2C3=O)cc1CN [HI] | < 4 | > 4 | – | –
35 | CN(C)C1C(O)=C(C(N)=O)C(=O)[C@@]2(O)C(O)=C3C(=O)c4c(O)c(CN)cc(-c5ccc(C(C)(C)C)cc5)c4C[C@H]3C[C@@H]12 (stereo partly drawn) [HJ] | < 4 | < 4 | – | –
36 | CCOc1ccc(-c2ccc(O)c3c2C[C@H]2C[C@H]4C(N(C)C)C(O)=C(C(N)=O)C(=O)[C@@]4(O)C(O)=C2C3=O)cc1CNC(=O)NC(C)(C)C (stereo partly drawn) [HK] | < 4 | > 4 | – | –
37 | CN(C)Cc1ccc(-c2ccc(O)c3c2C[C@H]2C[C@H]4[C@H](N(C)C)C(O)=C(C(N)=O)C(=O)[C@@]4(O)C(O)=C2C3=O)o1 [HL] | < 4 | < 4 | – | –
38 | CN(C)[C@@H]1C(O)=C(C(N)=O)C(=O)[C@@]2(O)C(O)=C3C(=O)c4c(O)ccc(-c5ccc(CN6CCOCC6)o5)c4C[C@H]3C[C@@H]12 [HM] | < 4 | < 4 | – | –
39 | CC(C)NCc1ccc(-c2ccc(O)c3c2C[C@H]2C[C@H]4[C@@H](N(C)C)C(O)=C(C(N)=O)C(=O)[C@@]4(O)C(O)=C2C3=O)o1 [HN] | < 4 | < 4 | – | –
40 | COc1ccc(CNCc2cccc(C)c2)cc1-c1ccc(O)c2c1C[C@H]1C[C@H]3C(N(C)C)C(O)=C(C(N)=O)C(=O)[C@@]3(O)C(O)=C1C2=O (stereo partly drawn) [HO] | < 4 | < 4 | – | –
41 | CN(C)[C@@H]1C(O)=C(C(N)=O)C(=O)[C@@]2(O)C(O)=C3C(=O)c4c(O)c(NC(=O)OCC(C)(C)C)cc(CN)c4C[C@H]3C[C@@H]12 [HP] | > 4 | > 4 | – | –
42 | CN(C)c1ccc(-c2cc(CN)c(O)c3c2C[C@H]2C[C@H]4[C@@H](N(C)C)C(O)=C(C(N)=O)C(=O)[C@@]4(O)C(O)=C2C3=O)cc1 [HQ] | < 4 | > 4 | – | –
43 | CN(C)c1ccc(-c2cc(C#CC3=CCCCC3)c(O)c3c2C[C@H]2C[C@H]4[C@H](N(C)C)C(O)=C(C(N)=O)C(=O)[C@@]4(O)C(O)=C2C3=O)cc1 [HR] | > 4 | > 4 | – | –
44 | CCOc1ccc(-c2ccc(O)c3c2C[C@H]2C[C@H]4C(N(C)C)C(O)=C(C(N)=O)C(=O)[C@@]4(O)C(O)=C2C3=O)cc1CNC(=O)C(F)(F)F (stereo partly drawn) [HS] | < 4 | > 4 | – | –
45 | COc1ccc(C(=O)Nc2ccc(-c3ccc(O)c4c3C[C@H]3C[C@H]5C(N(C)C)C(O)=C(C(N)=O)C(=O)[C@@]5(O)C(O)=C3C4=O)cc2)cc1 (stereo partly drawn) [HT] | < 4 | > 4 | – | –
